Molecules are shown by their SMILES.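 These data come from cells grown in 96-well plates and exposed to compound for 48 hours at five concentrations. At the GI50, growth is halved. TGI is the concentration that stops growth completely.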 Where only a bound is given, the exact number is not on record here.

Test systems include 786-0 renal; ACHN renal; CAKI-1 renal; HOP-92 NSCLC; OVCAR-4 ovarian; OVCAR-8 ovarian; RPMI-8226 leukemia; MALME-3M melanoma; HL-60(TB) leukemia.
What all share (test): growth of human tumour cells (NCI), 48 h

Take `O=C(Cc1csc2nc(-c3ccc(Br)cc3)cn12)N/N=C/c1ccc(O)cc1`: the GI50 was 26.1 µM with 786-0 renal; 14.7 µM in the experiment with ACHN renal; 14.9 µM in the experiment with CAKI-1 renal; 18.9 µM with HOP-92 NSCLC; above 100 µM with OVCAR-4 ovarian; 7.07 µM with OVCAR-8 ovarian. Moreover, the GI50 in the experiment on RPMI-8226 leukemia is 4.29 µM. For the same molecule, the TGI is 89 µM in the experiment with 786-0 renal; 51 µM in the experiment on ACHN renal; 49.3 µM in the experiment on CAKI-1 renal; 68.9 µM in the experiment with HOP-92 NSCLC; above 100 µM in the experiment on OVCAR-4 ovarian; 25.9 µM in the experiment with OVCAR-8 ovarian. For the same molecule, the TGI in the experiment on RPMI-8226 leukemia came to 40.2 µM.

Turning to `C[C@]12CC[C@H](OC3CCCCO3)CC1=CC[C@@H]1C2CC[C@]2(C)/C(=N/O)CCC12` (some centres undefined), the TGI is 55.8 µM with 786-0 renal; 54.3 µM with ACHN renal; above 100 µM in the experiment with CAKI-1 renal; 46 µM in the experiment on HOP-92 NSCLC; 80.4 µM with MALME-3M melanoma; 39 µM in the experiment with OVCAR-4 ovarian. Moreover, the figures for the TGI in the experiment with OVCAR-8 ovarian and in the experiment on RPMI-8226 leukemia were 40.5 µM and 40 µM, respectively.

As for `N[C@@H]1CCCC[C@@H]1N.O=P([O-])([O-])CN(CP(=O)([O-])[O-])CP(=O)([O-])[O-].[Pt+2]`, the GI50 with 786-0 renal, in the experiment with ACHN renal, in the experiment with CAKI-1 renal, in the experiment on HL-60(TB) leukemia, in the experiment on HOP-92 NSCLC and in the experiment with MALME-3M melanoma was above 100 µM throughout. The GI50 with OVCAR-4 ovarian, with OVCAR-8 ovarian and in the experiment on RPMI-8226 leukemia was above 100 µM in each case. The TGI with 786-0 renal, in the experiment on ACHN renal, in the experiment with CAKI-1 renal, in the experiment on HL-60(TB) leukemia, in the experiment on HOP-92 NSCLC and in the experiment on MALME-3M melanoma was above 100 µM in each case. The TGI with OVCAR-4 ovarian, with OVCAR-8 ovarian and in the experiment on RPMI-8226 leukemia was above 100 µM each time.

In the case of `Nc1ccc2c(c1)c(N)nn2C(=O)Nc1ccc(Cc2ccccc2)cc1`, the GI50 was 12.4 µM in the experiment on 786-0 renal; 3.37 µM in the experiment on ACHN renal; 4.3 µM with CAKI-1 renal; 3.46 µM in the experiment on HL-60(TB) leukemia; 10.4 µM in the experiment on HOP-92 NSCLC; 18 µM in the experiment with MALME-3M melanoma. The figures for the GI50 in the experiment with OVCAR-4 ovarian, in the experiment on OVCAR-8 ovarian and with RPMI-8226 leukemia were 8.29 µM, 20.2 µM and 5.14 µM, respectively. Also, the TGI in the experiment with 786-0 renal was determined as 25.9 µM; in the experiment on ACHN renal it was 13.7 µM; in the experiment with CAKI-1 renal, 26.8 µM; with HL-60(TB) leukemia, 17.2 µM; with HOP-92 NSCLC, 24.4 µM; with MALME-3M melanoma, 89.8 µM. The TGI was 24.1 µM with OVCAR-4 ovarian, above 100 µM in the experiment with OVCAR-8 ovarian and 35 µM in the experiment with RPMI-8226 leukemia.

Regarding `COc1ccc(S(=O)(=O)N(C)CC(=O)O)cc1`, the TGI with 786-0 renal, in the experiment on ACHN renal, in the experiment on CAKI-1 renal, with HL-60(TB) leukemia, in the experiment with HOP-92 NSCLC and in the experiment with MALME-3M melanoma was above 100 µM throughout. Also, the TGI in the experiment on OVCAR-4 ovarian, with OVCAR-8 ovarian and in the experiment on RPMI-8226 leukemia was above 100 µM each time.

Turning to `FC1OC2OC1C(OCc1ccccc1)C(OCc1ccccc1)C2OCc1ccccc1` (centres undefined), the TGI in the experiment with 786-0 renal is above 100 µM; in the experiment with CAKI-1 renal, above 100 µM; in the experiment on HL-60(TB) leukemia, 62.9 µM; with HOP-92 NSCLC it was 64 µM; in the experiment on MALME-3M melanoma, above 100 µM; with OVCAR-4 ovarian, above 100 µM. In addition, the TGI was above 100 µM with OVCAR-8 ovarian and 61.2 µM with RPMI-8226 leukemia.

For `O=C(Cc1ccccc1)NN1C(=O)/C(=C\c2ccc(O)cc2)SC1=Nc1ccccc1`, the TGI with 786-0 renal, in the experiment on ACHN renal, in the experiment with HL-60(TB) leukemia, in the experiment on HOP-92 NSCLC, with OVCAR-4 ovarian and in the experiment on OVCAR-8 ovarian was above 100 µM throughout. For the same molecule, in the experiment with RPMI-8226 leukemia, the TGI is above 100 µM.

For the molecule `Cc1ccc(C(C)C)cc1NC(=O)Nc1ccc([N+](=O)[O-])cc1`, the GI50 was 2.32 µM with 786-0 renal; 2.56 µM with ACHN renal; 2.1 µM with CAKI-1 renal; 2.42 µM in the experiment with HOP-92 NSCLC; 2.02 µM in the experiment on MALME-3M melanoma; 3.44 µM in the experiment with OVCAR-4 ovarian. The GI50 was 3.19 µM with OVCAR-8 ovarian and 1.57 µM in the experiment with RPMI-8226 leukemia. Also, the TGI was 5.29 µM with 786-0 renal; 7.82 µM with ACHN renal; 5.62 µM in the experiment on CAKI-1 renal; 8.89 µM in the experiment on HOP-92 NSCLC; 6.48 µM in the experiment with MALME-3M melanoma; 13 µM in the experiment with OVCAR-4 ovarian. The TGI turned out to be 11.6 µM in the experiment with OVCAR-8 ovarian and 4.73 µM in the experiment on RPMI-8226 leukemia.

With `COC(=O)/C(=N\NC(N)=S)C(C#N)c1ccccc1` (centres undefined), the TGI in the experiment on 786-0 renal, in the experiment on ACHN renal, in the experiment with HL-60(TB) leukemia, with HOP-92 NSCLC, in the experiment with MALME-3M melanoma and with OVCAR-4 ovarian was above 100 µM in each case. Moreover, the TGI in the experiment on OVCAR-8 ovarian and in the experiment with RPMI-8226 leukemia was above 100 µM each time.

In the case of `COc1cccc(NC(=O)C(=O)C(C(C)=O)c2nc3ccc(Cl)cc3[nH]c2=O)c1` (centres undefined), the TGI in the experiment with 786-0 renal, with ACHN renal, in the experiment with CAKI-1 renal, with HL-60(TB) leukemia, in the experiment with HOP-92 NSCLC and in the experiment with MALME-3M melanoma was above 100 µM in each case. Also, the TGI in the experiment with OVCAR-4 ovarian, in the experiment on OVCAR-8 ovarian and in the experiment on RPMI-8226 leukemia was above 100 µM throughout.

As for `CSC1=NCC2(S1)c1ccccc1N(C(=O)OC(C)(C)C)C2N1CCCCC1` (centres undefined), the GI50 was 16.2 µM with 786-0 renal; 63.7 µM in the experiment with HL-60(TB) leukemia; 51.5 µM with HOP-92 NSCLC; 15.3 µM in the experiment with MALME-3M melanoma; above 100 µM with OVCAR-4 ovarian; above 100 µM in the experiment with OVCAR-8 ovarian. For the same molecule, in the experiment with RPMI-8226 leukemia, the GI50 was above 100 µM. Also, the TGI in the experiment on 786-0 renal, in the experiment with HL-60(TB) leukemia, in the experiment with HOP-92 NSCLC, with MALME-3M melanoma, in the experiment with OVCAR-4 ovarian and in the experiment with OVCAR-8 ovarian was above 100 µM throughout. The molecule further had a TGI in the experiment on RPMI-8226 leukemia above 100 µM.
